Patent publication US20220064167A1, “IMIDAZO-PYRAZOLE CARBOXAMIDE DERIVATIVES AS ANTICANCER AGENTS AND THE SYNTHESIS THEREOF” (AVIDIN KFT., priority 2018, published 2022)
pIC50: −log10 of the molar value.

What was measured:
Experiment in all cases: viability assay (Table 3)
Format in all cases: cell-based
[1] = test system: K-562 (erythroleukemia); conditions: Homo sapiens, K562; 20000 cells/well, 10 μM-0.2 nM
Description: (§1) For viability assays cells were seeded in 96 well plates (MCF7 and 4T1: 6000, HL60: 120.000 cells/well) and incubated overnight. Compounds were dissolved in dimethyl sulfoxide (DMSO). Cells were treated with an increasing concentration of compounds having the general formula (I.) (156 nM-100 μM). Cell viability was determined after 72h incubation. Resazurin reagent (Sigma-Aldrich) was dissolved in PBS (pH 7.4) at 0.15 mg/ml concentration, sterile filtered (0.22 μm, Merck Millipore) and aliquoted at −20° C. Resazurin reagent (Sigma-Aldrich) was added at a final concentration of 25 μg/ml. After 2 hours incubation at 37° C. 5% CO2 fluorescence (530 nm excitation/580 nm emission) was recorded on a multimode microplate reader (Cytofluor4000, PerSeptive Biosytems). Viability was calculated with relation to untreated control cells and blank wells containing media without cells. IC50 values (50% inhibiting concentration) were calculated by GraphPad Prism® 5 (La Jolla, Calif., USA).
(§2) Cancer cell lines were purchased from the American Type Culture Collection (ATCC, Manassas, Va., USA). HT29 (human colorectal adenocarcinoma), HL-60 (acute promyelocytic leukemia), THP-1 (acute monocytic leukemia), MOLT-4 (acute T-lymphoblastic leukemia), MV-4-11 (biphenotypic B myelomonocytic leukemia) and K-562 (erythroleukemia) cells were maintained in Roswell Park Memorial Institute 1640 medium (RPMI-1640) with 10% FCS. Media were supplemented with 2 mM GlutaMAX, and 100 U/mL penicillin, 100 μg/mL streptomycin (Life Technologies, Carlsbad, Calif., USA). Cell cultures were maintained at 37° C. in a humidified incubator in an atmosphere of 5% CO2 (Sanyo, Japan).
(§3) Viability assays were performed as described in Example 102 with minor modification for cell density and tested concentration range. Applied cell densities: in case of human primary fibroblast 6000, for HT29 4000, for HL-60, MOLT-4, MV-4-11, THP-1, K-562 20000 cells/well. Applied compound concentration range: 10 μM-0.2 nM.

[2] = test system: MOLT-4 (acute T-lymphoblastic leukemia); conditions: Homo sapiens, 20000 cells/well, 10 μM-0.2 nM
Description: as §1, §2, §3

[3] = test system: HL-60 (acute promyelocytic leukemia); conditions: Homo sapiens, 20000 cells/well, 10 μM-0.2 nM
Description: as §1, §2, §3

[4] = test system: THP-1 (acute monocytic leukemia); conditions: Homo sapiens, 20000 cells/well, 10 μM-0.2 nM
Description: as §1, §2, §3

[5] = test system: HT29 (human colorectal adenocarcinoma); conditions: HT-29, 4000 cells/well, 10 μM-0.2 nM
Description: as §1, §2, §3

[6] = test system: MV-4-11 (biphenotypic B myelomonocytic leukemia); conditions: Homo sapiens, MV4-11; 20000 cells/well, 10 μM-0.2 nM
Description: as §1, §2, §3

[7] = test system: human primary fibroblast; conditions: 6000 cells/well, 10 μM-0.2 nM
Description: as §1
Human primary fibroblasts were obtained from the skin by enzymatic digestion according to a standard protocol. Fibroblasts were grown in low glucose DMEM/F12 medium containing 15% FCS, 1% antibiotic/antimycotic (PAA, Pasching, Austria) and 1% L-glutamine solution (PAA). Fibroblasts were cultured at 37° C. and 5% CO2 in humidified conditions. […]

pIC50 [1]: 7.27 | pIC50 [2]: 7.56 | pIC50 [3]: 7.78 | pIC50 [4]: 7.59 | pIC50 [5]: 8.00 | pIC50 [6]: 7.49
Structure (SMILES): CC(C)(C)Nc1c(C(C)(C)C)[nH]c2c(C(=O)Nc3ccc(O)cc3)cnn12 [Example 90, 2-(Tert-butyl)-3-(tert-butylamino)-N-(4-hydroxyphenyl)-1H-imidazo[1,2-b]pyrazole-7-carboxamide]
pIC50 [7]: < 5.52
